Experimental data from BindingDB's records for doi:10.1021/acs.jmedchem.6b00799 (Glaxosmithkline R&D, 2016).

Molecular target: DNA-dependent protein kinase catalytic subunit (Homo sapiens, UniProt P78527)
Assay: Inhibition of DNA-PK (unknown origin)

DNA-dependent protein kinase catalytic subunit, sequence (P78527 whole entry): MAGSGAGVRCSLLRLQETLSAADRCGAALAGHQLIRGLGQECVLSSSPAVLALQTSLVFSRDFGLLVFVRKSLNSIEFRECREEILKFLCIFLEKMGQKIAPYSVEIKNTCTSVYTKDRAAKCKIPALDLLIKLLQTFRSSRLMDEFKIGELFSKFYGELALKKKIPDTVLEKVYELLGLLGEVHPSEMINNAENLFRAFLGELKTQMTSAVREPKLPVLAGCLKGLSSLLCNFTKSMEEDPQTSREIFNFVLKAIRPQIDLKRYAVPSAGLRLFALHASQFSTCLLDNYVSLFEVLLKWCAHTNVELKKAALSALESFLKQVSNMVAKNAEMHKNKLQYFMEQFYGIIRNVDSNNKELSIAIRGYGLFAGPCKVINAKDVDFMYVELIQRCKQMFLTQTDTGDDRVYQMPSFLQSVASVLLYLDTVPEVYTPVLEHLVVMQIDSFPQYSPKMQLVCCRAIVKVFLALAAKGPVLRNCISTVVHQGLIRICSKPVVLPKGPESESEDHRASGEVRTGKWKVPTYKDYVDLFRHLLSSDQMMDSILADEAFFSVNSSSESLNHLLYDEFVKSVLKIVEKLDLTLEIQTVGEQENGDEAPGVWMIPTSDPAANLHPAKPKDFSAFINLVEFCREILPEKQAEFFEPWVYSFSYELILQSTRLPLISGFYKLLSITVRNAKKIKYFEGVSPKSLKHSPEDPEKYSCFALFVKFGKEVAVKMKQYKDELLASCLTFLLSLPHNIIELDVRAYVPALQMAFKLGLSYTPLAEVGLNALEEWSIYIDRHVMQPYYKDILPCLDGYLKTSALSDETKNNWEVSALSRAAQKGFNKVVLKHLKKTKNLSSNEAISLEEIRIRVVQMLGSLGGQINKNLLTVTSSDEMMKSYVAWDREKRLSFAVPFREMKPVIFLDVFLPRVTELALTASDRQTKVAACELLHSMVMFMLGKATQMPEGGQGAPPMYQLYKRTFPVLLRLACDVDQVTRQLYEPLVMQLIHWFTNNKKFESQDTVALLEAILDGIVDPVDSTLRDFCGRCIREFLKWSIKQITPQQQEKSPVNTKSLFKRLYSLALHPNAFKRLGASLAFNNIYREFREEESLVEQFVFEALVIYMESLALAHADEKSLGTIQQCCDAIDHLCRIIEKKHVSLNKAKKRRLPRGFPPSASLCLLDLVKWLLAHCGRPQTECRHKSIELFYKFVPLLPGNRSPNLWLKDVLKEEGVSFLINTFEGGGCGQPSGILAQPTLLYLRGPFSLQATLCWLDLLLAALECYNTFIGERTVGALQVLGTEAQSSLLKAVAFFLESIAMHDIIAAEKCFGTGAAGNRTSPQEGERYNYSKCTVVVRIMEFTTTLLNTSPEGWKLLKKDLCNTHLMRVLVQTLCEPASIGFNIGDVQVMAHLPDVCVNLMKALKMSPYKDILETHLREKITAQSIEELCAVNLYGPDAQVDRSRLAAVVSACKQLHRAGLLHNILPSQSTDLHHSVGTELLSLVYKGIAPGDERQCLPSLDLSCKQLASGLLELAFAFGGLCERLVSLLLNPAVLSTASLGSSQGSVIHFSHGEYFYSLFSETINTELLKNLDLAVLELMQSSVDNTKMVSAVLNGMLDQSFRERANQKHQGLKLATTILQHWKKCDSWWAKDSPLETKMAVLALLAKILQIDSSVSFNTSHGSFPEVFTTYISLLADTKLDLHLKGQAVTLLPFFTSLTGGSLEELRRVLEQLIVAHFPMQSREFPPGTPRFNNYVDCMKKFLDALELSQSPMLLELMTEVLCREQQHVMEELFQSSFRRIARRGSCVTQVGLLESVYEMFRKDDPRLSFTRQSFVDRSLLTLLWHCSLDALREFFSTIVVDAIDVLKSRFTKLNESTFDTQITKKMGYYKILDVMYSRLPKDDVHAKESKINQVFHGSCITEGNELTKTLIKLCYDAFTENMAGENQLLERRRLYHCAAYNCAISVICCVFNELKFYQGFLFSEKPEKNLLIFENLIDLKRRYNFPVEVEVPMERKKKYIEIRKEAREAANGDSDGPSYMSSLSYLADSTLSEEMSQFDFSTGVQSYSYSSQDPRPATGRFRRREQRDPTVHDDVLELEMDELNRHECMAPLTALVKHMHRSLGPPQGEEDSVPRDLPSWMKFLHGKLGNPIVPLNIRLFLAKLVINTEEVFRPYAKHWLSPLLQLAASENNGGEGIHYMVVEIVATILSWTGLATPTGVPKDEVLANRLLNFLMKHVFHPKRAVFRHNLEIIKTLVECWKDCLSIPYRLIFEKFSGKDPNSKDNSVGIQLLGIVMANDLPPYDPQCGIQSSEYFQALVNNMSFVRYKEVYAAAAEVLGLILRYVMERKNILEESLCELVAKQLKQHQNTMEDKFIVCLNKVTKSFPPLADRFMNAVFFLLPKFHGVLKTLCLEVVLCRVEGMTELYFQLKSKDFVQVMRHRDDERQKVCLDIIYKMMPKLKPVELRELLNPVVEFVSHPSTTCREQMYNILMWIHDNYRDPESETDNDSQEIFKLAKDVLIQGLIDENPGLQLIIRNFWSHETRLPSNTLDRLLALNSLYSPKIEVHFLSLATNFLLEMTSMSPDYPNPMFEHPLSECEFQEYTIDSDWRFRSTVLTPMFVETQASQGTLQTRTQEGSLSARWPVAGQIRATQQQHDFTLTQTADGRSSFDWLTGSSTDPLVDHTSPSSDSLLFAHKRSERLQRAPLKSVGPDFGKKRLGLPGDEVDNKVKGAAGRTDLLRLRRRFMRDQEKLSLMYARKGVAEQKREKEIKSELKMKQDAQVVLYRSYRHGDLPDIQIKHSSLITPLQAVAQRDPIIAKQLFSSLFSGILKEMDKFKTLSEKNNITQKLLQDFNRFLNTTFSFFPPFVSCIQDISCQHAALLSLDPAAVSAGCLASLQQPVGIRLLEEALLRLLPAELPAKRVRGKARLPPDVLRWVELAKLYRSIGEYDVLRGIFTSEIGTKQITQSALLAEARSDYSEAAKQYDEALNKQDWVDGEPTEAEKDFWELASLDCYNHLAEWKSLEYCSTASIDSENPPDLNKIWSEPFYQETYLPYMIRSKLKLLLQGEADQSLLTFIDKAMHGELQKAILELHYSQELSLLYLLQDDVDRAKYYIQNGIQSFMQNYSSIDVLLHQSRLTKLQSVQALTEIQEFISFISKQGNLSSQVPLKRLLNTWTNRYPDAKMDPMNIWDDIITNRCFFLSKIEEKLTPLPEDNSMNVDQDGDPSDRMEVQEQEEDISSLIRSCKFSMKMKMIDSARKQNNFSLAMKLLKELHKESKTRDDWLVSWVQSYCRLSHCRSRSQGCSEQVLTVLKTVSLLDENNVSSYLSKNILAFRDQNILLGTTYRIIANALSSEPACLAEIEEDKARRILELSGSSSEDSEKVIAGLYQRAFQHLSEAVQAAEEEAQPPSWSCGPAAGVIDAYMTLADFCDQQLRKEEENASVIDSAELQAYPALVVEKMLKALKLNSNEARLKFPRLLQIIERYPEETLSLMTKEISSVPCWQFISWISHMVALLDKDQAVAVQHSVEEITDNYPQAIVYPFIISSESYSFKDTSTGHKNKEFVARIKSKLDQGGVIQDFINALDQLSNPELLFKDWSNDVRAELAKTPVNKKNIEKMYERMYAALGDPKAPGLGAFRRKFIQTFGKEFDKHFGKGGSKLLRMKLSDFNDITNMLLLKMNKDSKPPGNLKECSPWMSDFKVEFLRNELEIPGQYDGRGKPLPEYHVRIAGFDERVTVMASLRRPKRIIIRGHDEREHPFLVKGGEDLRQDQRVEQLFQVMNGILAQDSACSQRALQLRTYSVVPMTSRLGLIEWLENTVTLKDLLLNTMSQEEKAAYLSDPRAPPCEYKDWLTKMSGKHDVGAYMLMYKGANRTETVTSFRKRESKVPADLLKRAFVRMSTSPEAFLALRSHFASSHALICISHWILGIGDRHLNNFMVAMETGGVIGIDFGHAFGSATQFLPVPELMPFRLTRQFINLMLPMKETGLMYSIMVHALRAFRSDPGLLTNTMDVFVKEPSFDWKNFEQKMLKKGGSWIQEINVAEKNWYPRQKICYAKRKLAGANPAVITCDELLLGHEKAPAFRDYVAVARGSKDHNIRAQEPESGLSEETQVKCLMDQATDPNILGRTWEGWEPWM

IC50: 2510 nM
Compound: COc1ncc(-c2cc3c(c(NC(=O)CN4CCOCC4)c2)COC3)cc1NS(C)(=O)=O
